In US9416136B2, “Pyrrolopyrimidine compounds and their uses” (Novartis AG, priority 2008, dated 2016):

What was measured:
cell cycle = cell cycle analysis; assay type: cell-based; conditions: concentrations of 1 and 10 uM
Excerpt: (§1) Moreover, the inhibitory effects of the CDK4 inhibitor are absolutely dependent upon the presence of the Retinoblastoma protein (pRb). Activities in pRb negative cells for candidate CDK4 inhibitors indicate that the compounds have off-target activities and not as selective.

pRb negative cells = assay: cell proliferation of pRb negative cells; assay type: cell-based; conditions: high concentrations
Excerpt: as §1

CN(C)C(=O)c1cc2cnc(Nc3ccc(N4CCNCC4)cc3)nc2n1C1CCCC1 [Example 200]
cell cycle arrest phase (cell cycle): starts to induce G2/M phase blocks
inhibition of cell proliferation of pRb negative cells (pRb negative cells): does inhibit the cell proliferation of pRb negative cells at high concentrations
